Source: PubChem BioAssay (NCI)
Several values for one entry are separate records, joined by “and”; a condition that tells them apart may be missing. Equal values may be shown once.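 48-hour exposure; five concentrations; linearly interpolated endpoints. GI50 marks 50% less growth. TGI: total growth inhibition.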

Key:
Experiment in all cases: NCI tumour cell line growth inhibition, 48 h
COLO 205 colon = test system: COLO 205 colon
HCT-15 colon = test system: HCT-15 colon
HOP-92 NSCLC = test system: HOP-92 NSCLC
HT29 colon = test system: HT29 colon
NCI-H23 lung = test system: NCI-H23 lung
NCI-H460 lung = test system: NCI-H460 lung
RXF 393 renal = test system: RXF 393 renal
SR leukemia = test system: SR leukemia
NCI-H522 lung = test system: NCI-H522 lung
HOP-18 NSCLC = test system: HOP-18 NSCLC

CCn1c2ccccc2c2cc(NC(=O)c3c(C)[nH]c(=O)[nH]c3=S)ccc21
TGI (COLO 205 colon): 46.3 µM | TGI (HCT-15 colon): > 100 µM | TGI (HOP-92 NSCLC): > 100 µM | TGI (HT29 colon): > 100 µM | TGI (NCI-H23 lung): > 100 µM | TGI (NCI-H460 lung): > 100 µM | TGI (RXF 393 renal): > 100 µM | TGI (SR leukemia): > 100 µM

COc1cccc(C2c3cc4c(cc3OC(N3CCOCC3)C2C)OCO4)c1 (stereo not given)
TGI (COLO 205 colon): 29.8 µM | TGI (HCT-15 colon): > 100 µM | TGI (HOP-92 NSCLC): 85.3 µM | TGI (HT29 colon): 25 µM | TGI (NCI-H460 lung): 37.7 µM | TGI (NCI-H522 lung): 75.3 µM | TGI (SR leukemia): > 100 µM

COc1cccc2c1C(=O)c1c(O)c3c(c(O)c1C2=O)C[C@](O)(C(=O)CO)CC3OC1CC(N)C(OC2CCCCO2)C(C)O1 (stereo not given in full)
TGI (COLO 205 colon): 2.61 µM | TGI (HCT-15 colon): 5.14 µM | TGI (HOP-18 NSCLC): 3 µM | TGI (HOP-92 NSCLC): 1.02 µM | TGI (HT29 colon): 4.52 µM | TGI (NCI-H23 lung): 1.97 µM | TGI (NCI-H460 lung): 0.208 µM | TGI (NCI-H522 lung): 2.62 µM | TGI (RXF 393 renal): 1.87 µM

CCC[CH2][Ge]([CH2]CCC)([CH2]CCC)[O]C(=O)CCl
GI50 (COLO 205 colon): 10.4 µM | TGI (COLO 205 colon): 24 µM | GI50 (HCT-15 colon): 0.546 µM | TGI (HCT-15 colon): 11.5 µM | GI50 (HOP-18 NSCLC): 11.7 µM | TGI (HOP-18 NSCLC): 24 µM | GI50 (HOP-92 NSCLC): 0.573 µM | TGI (HOP-92 NSCLC): 8.54 µM | GI50 (HT29 colon): 0.628 µM | TGI (HT29 colon): 11.5 µM | GI50 (NCI-H23 lung): 0.115 µM | TGI (NCI-H23 lung): 12.5 µM | GI50 (NCI-H460 lung): 0.518 µM | TGI (NCI-H460 lung): 13.2 µM | GI50 (NCI-H522 lung): 0.214 µM | GI50 (RXF 393 renal): 0.612 µM | TGI (RXF 393 renal): 3.56 µM | GI50 (SR leukemia): 0.836 µM | TGI (SR leukemia): 68.5 µM

O=C1/C(=C/c2ccc(Cl)c(Cl)c2)CN(C(=O)CCN2CCOCC2)C/C1=C\c1ccc(Cl)c(Cl)c1
GI50 (HOP-18 NSCLC): 2.11 µM | TGI (HOP-18 NSCLC): 5.96 µM and 5.49 µM
